# Source: patent US20080025931A1, “Cosmetic method for limiting age-related hollowing of the face” (priority 2006, published 2008)
# Columns and labels:
# [1] = tested on: human adipocytes obtained from the abdominal region; test: Stimulation of lipogenesis by measuring the incorporation of 14C-acetate into the lipids; format: cell-based; details: for % control (incorporation of 14C-acetate into lipids): 1 h preincubation, 4 h treatment
# Method: The activity of a Vitreoscilla filiformis cell extract as prepared according to Example 1 on a local adipose development was evaluated. The study was carried out on human adipocytes obtained from the abdominal region. Various parameters representing the adipocyte physiology were analysed: • a) stimulation of lipogenesis by measurement of the incorporation of ^14C-acetate into lipids; • b) stimulation of adipocyte differentiation by measuring the expression of adipocyte differentiation markers: LPL (lipoprotein lipase, involved in the storage of fat; • c) monitoring of the enrichment in lipids by specific staining (AdipoRed™) and imaging; • d) monitoring of the cell size/size distribution by flow cytometry and fluorescent labelling (AdipoRed™). Stimulation of Lipogenesis by Measuring the Incorporation of ^14C-acetate into the Lipids The adipocytes were isolated after an abdominal plastic surgery operation and then incubated in the presence of collagenase and then washed and taken up in test medium. This test medium contained: • product to be tested (Vitreoscilla filiformis extract at various concentrations/theophylline 1 mM/isoproterenol 1 μM), or nothing for the control • bicarbonate 1.87 mg/ml • penicillin/streptomycin 25 IU/ml/25 μg/ml • glutamine 2 mM • MEM without phenol red qs 100% (v/v) supplemented with lipid-free bovine serum albumin at 0.5% (w/v). The products to be tested and the adipocytes were preincubated at 37° C. for 1 h, and then ^14C-acetate was added at 50 μCi/ml. After 4 h of treatment, the lipids were extracted with methanol/chloroform/water and the incorporated radioactivity was counted by liquid scintillation.
# [2] = tested on: LPL (lipoprotein lipase); test: Stimulation of adipocyte differentiation: expression of LPL marker by RT-Q-PCR in pre-adipocytes; format: cell-based, human; details: 25 ng/ml; 4 days; control differentiated cells = 100
# Method: The activity of a Vitreoscilla filiformis cell extract as prepared according to Example 1 on a local adipose development was evaluated. The study was carried out on human adipocytes obtained from the abdominal region. Various parameters representing the adipocyte physiology were analysed: • a) stimulation of lipogenesis by measurement of the incorporation of ^14C-acetate into lipids; • b) stimulation of adipocyte differentiation by measuring the expression of adipocyte differentiation markers: LPL (lipoprotein lipase, involved in the storage of fat; • c) monitoring of the enrichment in lipids by specific staining (AdipoRed™) and imaging; • d) monitoring of the cell size/size distribution by flow cytometry and fluorescent labelling (AdipoRed™). […]
# At the end of the treatment, the supernatants were removed and the cells rinsed in PBS and a volume of 300 μl of Tri-Reagent was added to each well. The expression of the LPL marker was evaluated by RT-Q-PCR on messenger RNAs extracted from the cellular lawns of each treatment. […]
# The incorporation of fluorescence into the amplified DNA was measured continuously during the PCR cycles. A relative expression value was evaluated for the LPL marker, expressed in arbitrary units according to the following formula: (½^number of cycles)×10^6
# The results are expressed as % relative expression compared with the control.
# [3] = tested on: Normal human pre-adipocytes; test: Enrichment with lipids by AdipoRed staining and imaging (Spectramax reader); format: cell-based; details: differentiated cells, 25 ng/ml
# Method: (§1) Normal human pre-adipocytes were cultured in PGM growth medium at 37° C. and 5% CO2 until confluent. At confluence (D0), the cells were placed in differentiation medium (series 1, differentiated cells) or normal growth medium (series 2, undifferentiated cells), containing or not containing (control) the test products or the reference (TNFα, differentiation inhibitor). The cells were then incubated at 37° C. and 5% CO2 for 4 days.
# Monitoring of the Enrichment with Lipids by Specific Staining (AdipoRed™) and Imaging
# At the end of the treatments, the cells were rinsed in PBS and then the intracellular lipids were stained with AdipoRed from BioWhittaker. The stained cells were observed by optical microscopy, with the Spectramax reader.
# (§2) The results are expressed as % increase relative to the control.
# [4] = tested on: Normal human pre-adipocytes; test: Cell size/size distribution by flow cytometry and AdipoRed fluorescent labelling; format: cell-based; details: differentiated cells; 25 ng/ml
# Method: as §1
# Monitoring of the Cell Size/Size Distribution by Flow Cytometry and AdipoRed™ Fluorescent Labelling
# At the end of the treatments, the cells were rinsed in PBS and then the intracellular lipids were stained with AdipoRed from BioWhittaker.
# At the end of the incubation, the cells were rinsed, trypsinized and then analysed by flow cytometry. The differentiation of the pre-adipocytes manifested itself at the morphological level by an increase in the number of intracytoplasmic lipid vesicles and an increase in the size of the cells.
# as §2
molecule,measurement,setting,value
C/C=C/C/C=C/CCC(=O)[C@H]1O[C@H]1C(N)=O [Cerulenin],% control (incorporation of 14C-acetate into lipids),[1]; 20 μM,34 % control
same,incorporation of acetate into lipids (in words),[1]; tested at 0.02 mM,significantly inhibited
TNFα,"LPL, % relative expression compared with the control",[2],111%
same,lipid level (in words),[3],reduced the lipid level
same,"% control (intracellular lipids, AdipoRed, Spectramax)",[3]; 4 days,83 % control
same,"% control (AdipoRed measurement, flow cytometry)",[4],80 % control
CC(C)NCC(O)c1ccc(O)c(O)c1 (stereo not shown) [Isoproterenol],% control (incorporation of 14C-acetate into lipids),[1]; 1 μM,3400 % control
